This note sets out measurements from patent US7349080B2, “Label-independent detection of unpurified analytes” (Corning Incorporated, priority 2004, dated 2008).

The assay is described as follows: Label-independent detection (LID) of binding to immobilized biotin on a grating-coupled waveguide microplate. An excerpt: A label-independent detection (LID) system developed by Corning Inc. was used to evaluate interactions between unlabeled streptavidin and immobilized biotin. This LID system is comprised of a multi-well optical reader and a disposable microplate (e.g., a 96- or 384-well microplate). Each well of the microplate contains a grating-coupled waveguide for evanescent field sensing. The sensing surface has a surface chemistry layer allowing for attachment of molecules that contain primary amine groups (e.g., biotin-amine). As streptavidin or other analytes of interest bind to the sensing surface, the refractive index at the surface is changed. An optical mode propagates and senses the refractive index changes close to the sensing surface. Only light that is “resonant” is strongly reflected, and the exact wavelength of the resonance is a sensitive function of the refractive index at the surface of the sensor. In a typical operation, a baseline read of the microplate is first established. Addition of a binding partner results in a change in refractive index at the sensing surface, which is indicated as picometer (pm) shift from baseline. Each microplate is read on the optical reader before, during, and after the addition of the binding partner. Resonant wavelength shift (“Response (pm)”) is plotted as a function of time. Cell lysate was prepared by diluting a 2 mg/ml stock to 100 μg/ml final concentration. A Corning 96-well clear polystyrene non-treated flat bottom plate (Corning catalog # 3370) was used for source plate preparation. To facilitate efficient pickup of the sample solutions by a multi-channel robotic pipettor in the LID instrument, each well of the source plate contained extra solution. A solution of 1× phosphate buffered saline (PBS; 1 mM KH2PO4, 10 mM Na2HPO4, 137 mM NaCl, and 2.7 mM KCl) was used as a first addition step for baseline measure. […] Interactions between purified streptavidin and immobilized biotin were first evaluated (FIG. 2). […] PBS was added to establish a baseline read (before point A). […]

For `NCCO` [Ethanolamine, ethanolamine], the “binding to the target area” value (ethanolamine in borate buffer, between points B and C, corrected response curve, FIG. 3) is recorded as “did not appear to bind to the target area”.
For the molecule streptavidin, the “effect of post wash on binding of streptavidin to biotin” value (PBS wash after point C, corrected response curve, FIG. 3) was “did not disrupt the binding”. Also, the “bulk index shift (Response (pm)) due to binding to the immobilized biotin” value (purified streptavidin 200 nM in 1x PBS, between points A and B, FIG. 2) is recorded as “increase in the bulk index”.
